Compound: O=C(Cc1csc(Nc2ccccc2)n1)NC1CCN(Cc2ccc(Cl)c(Cl)c2)CC1 [Compound No. 1 of Table V, 2-(2-Anilino-1,3-thiazol-4-yl)-N-[1-(3,4-dichlorobenzyl)piperidin-4-yl]acetamide]
- melting point: 191 to 192 °C

Compound: O=C(CCc1nnc(Nc2ccccc2Cl)o1)NC1CCN(Cc2ccc(Cl)c(Cl)c2)CC1 [Compound No. 6 of Table I, 3-[5-(2-chloro-phenylamino)-[1,3,4]oxadiazol-2-yl]-N-[1-(3,4-dichloro-benzyl)-piperidin-4-yl]-propionamide]
- melting point: 154 to 156 °C

Compound: O=C(Cc1nnc(Nc2ccccc2)o1)NC1CCN(Cc2ccc(Cl)c(Cl)c2)CC1 [Compound No. 1 of Table I, N-[1-(3,4-Dichlorobenzyl)-piperidin-4-yl]-2-(5-phenylamino-[1,3,4]oxadiazol-2-yl)-acetamide]
- melting point: 191 to 217 °C

Compound: O=C(CCc1nnc(Nc2ccccc2Cl)o1)NC1CCN(Cc2ccc(F)c(F)c2)CC1 [Compound No. 22 of Table I, 3-[5-(2-chloro-phenylamino)-[1,3,4]oxadiazol-2-yl]-N-[1-(3,4-difluorobenzyl)-piperidin-4-yl]-propionamide]
- melting point: 162 to 163 °C
